What was measured:
[1] = biological target: T1, Serine/threonine-protein kinase Chk1 (Homo sapiens, UniProt O14757)
T1 sequence (O14757 whole entry): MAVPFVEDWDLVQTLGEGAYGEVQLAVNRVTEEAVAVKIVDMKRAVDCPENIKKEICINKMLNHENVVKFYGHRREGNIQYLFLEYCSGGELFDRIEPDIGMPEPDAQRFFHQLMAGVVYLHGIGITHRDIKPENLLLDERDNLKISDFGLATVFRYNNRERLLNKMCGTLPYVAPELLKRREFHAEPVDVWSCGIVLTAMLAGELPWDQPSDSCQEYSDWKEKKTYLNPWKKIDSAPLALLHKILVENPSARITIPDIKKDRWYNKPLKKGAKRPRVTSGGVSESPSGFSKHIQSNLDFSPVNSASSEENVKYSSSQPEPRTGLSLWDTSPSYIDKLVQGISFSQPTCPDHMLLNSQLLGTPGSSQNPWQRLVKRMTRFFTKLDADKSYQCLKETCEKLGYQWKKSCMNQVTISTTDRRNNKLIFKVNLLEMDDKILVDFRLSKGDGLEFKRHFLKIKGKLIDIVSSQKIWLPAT

[2] = biological target: T1, Serine/threonine-protein kinase Chk1; test: Inhibition of CHK1 in human U2OS cells assessed as phosphorylation of H2AX after 2 hrs by FITC/propidium iodide staining-based immunofluorescence assay in presence of hydroxyurea; type: cell-based

Row | IC50 [1] | EC50 [2] | Compound
1 | 55 nM |  | O=C(Nc1cnccc1N1CCNCC1)c1csc(-c2ccc3c(c2)CCO3)n1
2 | 5200 nM |  | COc1ccc2c(c1)C(=O)N(c1nc(C(=O)Nc3cnc4ccccc4c3N3CCNCC3)cs1)C2
3 | 92 nM |  | O=C(Nc1ccccc1N1CCNCC1)c1csc(Nc2ccccc2)n1
4 | 38 nM |  | O=C(Nc1ccccc1N1CCNCC1)c1csc(N2CCc3ccccc3C2)n1
5 | 281 nM |  | COc1ccc2c(c1)C(=O)N(c1nc(C(=O)Nc3ccnnc3N3CCNCC3)cs1)C2
6 | 10000 nM |  | O=C(Nc1ccccc1N1CCNCC1)c1csc(-n2ccnc2)n1
7 | 11000 nM |  | O=C(Nc1ccccc1N1CCNCC1)c1csc(NCc2ccccc2)n1
8 | 3 nM | 3750 nM | COc1ccc(-c2cc(Nc3nc(C(=O)Nc4ccccc4N4CCNCC4)cs3)[nH]n2)cc1
9 | 240 nM |  | CN(c1ccccc1)c1nc(C(=O)Nc2ccccc2N2CCNCC2)cs1
10 | 8 nM | 900 nM | O=C(Nc1cnccc1N1CCNCC1)c1csc(N2Cc3ccccc3C2)n1
11 | 7 nM | 1250 nM | O=C(Nc1cnccc1N1CCNCC1)c1csc(-c2ccc3sccc3c2)n1
12 | 3 nM | 1000 nM | O=C(Nc1cnccc1N1CCNCC1)c1csc(-c2cc3ccccc3s2)n1
13 | 190 nM |  | O=C(Nc1ccccc1N1CCNCC1)c1csc(N2Cc3ccncc3C2)n1
14 | 6900 nM |  | O=C(Nc1ccccc1N1CCNCC1)c1csc(NC2Cc3ccccc3C2)n1
15 | 120 nM |  | O=C(Nc1ccccc1N1CCNCC1)c1csc(-n2cccn2)n1
16 | 38 nM |  | O=C(Nc1ccccc1N1CCNCC1)c1csc(N2CCCc3ccccc32)n1
17 | 10 nM | 1000 nM | O=C(Nc1cnccc1N1CCNCC1)c1csc(-c2ccc3[nH]ccc3c2)n1
18 | 3 nM | 75 nM | O=C(Nc1cnccc1N1CCNCC1)c1csc(-n2ncc3ccccc32)n1
19 | 870 nM |  | O=C(Nc1cccnc1N1CCNCC1)c1csc(-c2ccc3c(c2)CCO3)n1
20 | > 50000 nM |  | CN(Cc1ccccc1)c1nc(C(=O)Nc2ccccc2N2CCNCC2)cs1
21 | 2 nM | 350 nM | O=C(Nc1ccccc1N1CCNCC1)c1csc(Nc2n[nH]c3ccccc23)n1
22 | 62 nM |  | O=C(Nc1ccccc1N1CCNCC1)c1csc(N2Cc3cn[nH]c3C2)n1

Row | IC50 [1] | EC50 [2] | Compound
23 | 5700 nM |  | Cc1ncc2c(n1)CN(c1nc(C(=O)Nc3ccccc3N3CCNCC3)cs1)C2
24 | 4500 nM |  | Cn1nc(-c2ccccc2)cc1Nc1nc(C(=O)Nc2ccccc2N2CCNCC2)cs1
25 | 4 nM | 6000 nM | COc1ccc2c(c1)C(=O)N(c1nc(C(=O)Nc3cc(F)ccc3N3CCNCC3)cs1)C2
26 | 14 nM | 7500 nM | O=C(Nc1ccccc1N1CCNCC1)c1csc(Nc2cc(-c3ccccc3)n[nH]2)n1
27 | 4000 nM |  | O=C(Nc1ccccc1N1CCNCC1)c1csc(N2CCc3[nH]cnc3C2)n1
28 | 29 nM |  | COc1cc2c(cc1OC)CN(c1nc(C(=O)Nc3ccccc3N3CCNCC3)cs1)CC2
29 | 110 nM |  | O=C(Nc1ccccc1N1CCNCC1)c1csc(-n2nnc3ccccc32)n1
30 | 4700 nM |  | O=C(Nc1ncccc1N1CCNCC1)c1csc(-c2ccc3c(c2)CCO3)n1
31 | 5 nM | 250 nM | COc1ccc2c(c1)C(=O)N(c1nc(C(=O)Nc3ccccc3N3CCNCC3)cs1)C2
32 | 980 nM |  | COc1ccc(-c2cc(N)n(-c3nc(C(=O)Nc4ccccc4N4CCNCC4)cs3)n2)cc1
33 | 230 nM |  | O=C(Nc1ccncc1N1CCNCC1)c1csc(-c2ccc3c(c2)CCO3)n1
34 | 3 nM | 40 nM | O=C(Nc1cnccc1N1CCNCC1)c1csc(Nc2n[nH]c3ccccc23)n1
35 | 46 nM |  | COc1ccc2c(c1)C(=O)N(c1nc(C(=O)Nc3cncnc3N3CCNCC3)cs1)C2
36 | 28 nM |  | O=C(Nc1cnccc1N1CCNCC1)c1csc(-c2ccc3occc3c2)n1
37 | 10 nM | 1000 nM | COc1ccc2c(c1)C(=O)N(c1nc(C(=O)Nc3cnc(C)cc3N3CCNCC3)cs1)C2
38 | 1300 nM |  | O=C(Nc1ccccc1N1CCNCC1)c1csc(N2CCc3c(F)ccc(F)c3C2)n1
39 | 2 nM | 100 nM | O=C(Nc1cnccc1N1CCNCC1)c1csc(N2Cc3ccccc3C2=O)n1
40 | 280 nM |  | Cc1nc2c(s1)CN(c1nc(C(=O)Nc3ccccc3N3CCNCC3)cs1)C2
41 | 8 nM | 1400 nM | O=C(Nc1ccccc1N1CCNCC1)c1csc(N2Cc3ccccc3C2)n1
42 | 2 nM | 750 nM | O=C(Nc1ccccc1N1CCNCC1)c1csc(-n2ncc3ccccc32)n1
43 | 430 nM |  | O=C(Nc1cnccc1N1CCNCC1)c1csc(-c2ccc(Oc3ccccc3)cc2)n1
44 | 39 nM |  | O=C(Nc1ccccc1N1CCNCC1)c1csc(N2CCc3sccc3C2)n1
